The source of these data is patent US9029399B2, “17α-hydroxylase/C17,20-lyase inhibitors” (Novartis AG, priority 2011, dated 2015).

For orientation: inhibition means the change of the read-out against control, counted positive when it falls.

Each structure is given as a SMILES string.

The first test deals with Human CYP17 enzyme (Cytochrome P450, 17-20 lyase) (Homo sapiens (Human), UniProt P05093). Kind of test: CYP17 lyase assay, recombinant human CYP17 enzyme, 17-α-hydroxy pregnenolone [21-3H] substrate.
Chain of Human CYP17 enzyme (Cytochrome P450, 17-20 lyase) (P05093 whole entry): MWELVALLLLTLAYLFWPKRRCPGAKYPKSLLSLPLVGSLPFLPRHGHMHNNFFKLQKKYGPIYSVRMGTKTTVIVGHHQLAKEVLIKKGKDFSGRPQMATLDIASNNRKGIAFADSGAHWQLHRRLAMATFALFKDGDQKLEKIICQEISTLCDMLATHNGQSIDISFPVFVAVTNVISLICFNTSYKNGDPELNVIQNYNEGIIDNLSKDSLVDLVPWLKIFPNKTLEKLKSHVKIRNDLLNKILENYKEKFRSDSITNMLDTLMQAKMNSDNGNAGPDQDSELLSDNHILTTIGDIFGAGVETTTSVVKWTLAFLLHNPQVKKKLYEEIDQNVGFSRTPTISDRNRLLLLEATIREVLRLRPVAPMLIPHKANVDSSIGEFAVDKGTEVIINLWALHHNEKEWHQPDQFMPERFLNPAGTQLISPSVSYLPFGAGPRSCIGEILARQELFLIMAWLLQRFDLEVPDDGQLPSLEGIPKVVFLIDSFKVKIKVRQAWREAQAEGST
Details: not given
Format: biochemical. The source says:
1) Cvtochrome P450, 17-20 Lyase (CYP17-Lyase) Assay Development Using Recombinant Human CYP17 Enzyme and 17-α-Hydroxy Pregnenolone [21-3H] as the Substrate
Cytochrome P450, 17-α-Hydroxylase, 17-20 lyase (CYP17) is a multi functional enzyme that plays a key role in the biosynthesis of steroid hormones. […] In the hydroxylation reaction, it converts progesterone and pregnenolone to the corresponding hydroxylated products 17-α-hydroxy progesterone and 17-α-hydroxy pregnenolone. In the lyase reaction, it catalyzes the conversion of these hydroxylated substrates to Androstenedione and Dehydroepiandrosterone (DHEA) respectively. In the Cyp17 lyase assay described here, the conversion of 17-α-hydroxy pregnenolone to Dehydroepiandrosterone and acetic acid is being monitored.
The conversion of 17-α-hydroxy pregnenolone to Dehydroepiandrosterone is accompanied by the release of acetic acid. In the Cyp17 lyase assay, 17-α-hydroxy pregnenolone labeled with tritium (3H) at position 21 is used as the substrate. Chloroform extraction removes the radioactive steroids and acetic acid is taken into aqueous layer. The tritiated acetic acid released in the assay thus extracted is quantified to determine the enzyme activity.
Human Cyp 17 gene was cloned and expressed in Adenoviral expression system in A549 cell lines. The purified cell membrane preparations were used as the source for Human CYP17 enzyme. Total protein concentration: 8 mg/mL.
For routine screening, the assay was set up with 16 μg of enzyme in 50 μL reaction volume. 17α-hydroxy pregnenolone [21-3H] was added to a final concentration of […] NADPH is used at a final concentration of 4.2 mM. Total reaction volume was made up to 50 μL with 50 mM Phosphate buffer pH 7.5. The reaction mixture was incubated at room temperature for 90 minutes with gentle shaking. The reaction was stopped by the addition of 100 μl, of buffer. 500 μl, of 5% freshly prepared activated charcoal was added to the solution and mixed well by vortexing. The samples were centrifuged at 17568×g for 5 minutes. (14000 rpm). The supernatant was carefully transferred to fresh tube and 1.3 mL of scintillation fluid was added, mixed by vortexing.
The measurements were carried out in 2.0 mL Eppendorf™ tubes. Each tube was counted for 1 minute. The amount of tritiated acetic acid released is proportional to the lyase activity. Percent lyase activity in presence of inhibitor was calculated using the formula given below.
[formula] Sample: Enzyme reaction in presence of inhibitor. Positive control: Enzyme reaction without inhibitor but containing DMSO at 1% final concentration. Blank—Contains all reagents except enzyme. % Inhibition=100%−% Lyase activity
For IC50 determination, the % inhibition was plotted as a function of inhibitor concentration. The data was fitted to sigmoidal equation using Graphpad Prism® software IV to generate IC50 values.
On to `O=C1N(c2ccnc(C(F)(F)F)c2)CCN1c1c(C2CC2)ccnc1O` [Example 50A, 1-(4-cyclopropyl-2-hydroxypyridin-3-yl)-3-(2-(trifluoromethyl)pyridin-4-yl)imidazolidin-2-one], for which the inhibition at 10 µM was found to be 51%.

Still in this test, the particulars now being: recombinant human CYP17, first value of Human/Rat cell; read-out: Lyase IC 50 Human.
Take `O=C1N(c2cc3ccccc3s2)CCN1c1cnccc1C1CC1` [Example 6A, 1-(benzo[b]thiophen-2-yl)-3-(4-cyclopropylpyridin-3-yl)imidazolidin-2-one]: the IC50 amounted to 13 nM.

With `O=C1N(c2ccnc(Cl)c2)CCN1c1cnccc1C1(O)CCC1` [Example 33A, 1-(2-chloro-pyridin-4-yl)-3-[4-(1-hydroxy-cyclobutyl)-pyridin-3-yl]imidazolidin-2-one], the IC50 was determined as 45 nM.

Consider `O=C1N(c2ccnc(C(F)(F)F)c2)[C@@H]2C[C@@H]2N1c1cnccc1C1CC1` [Example 32A-I, (1S,5R)-2-(4-cyclopropylpyridin-3-yl)-4-(2-(trifluoromethyl)pyridin-4-yl)-2,4-diazabicyclo[3.1.0]hexan-3-one], for which the IC50 worked out at 184 nM.

For `O=C1N(c2cc(C3CC3)nc(C(F)(F)F)c2)CCN1c1cnccc1C1CC1` [Example 48A, 1-(2-cyclopropyl-6-(trifluoromethyl)pyridin-4-yl)-3-(4-cyclopropylpyridin-3-yl)imidazolidin-2-one], the IC50 was 4.75 nM.

Consider `O=C1N(c2cc(F)c3ccsc3c2)CCN1c1cnccc1C1CC1` [Example 26A, 1-(4-cyclopropyl-pyridin-3-yl)-3-(4-fluoro-benzo[b]thiophen-6-yl)imidazolidin-2-one], for which the IC50 was 6 nM.

On to `O=C1N(c2cc3sccc3cc2F)CCN1c1cnccc1C1CC1` [Example 27A, 1-(4-cyclopropyl-pyridin-3-yl)-3-(5-fluoro-benzo[b]thiophen-6-yl)imidazolidin-2-one], for which the IC50 was 461 nM.

With `Cc1csc2ccc(N3CCN(c4cnccc4C4CC4)C3=O)cc12` [Example 15A, 1-(4-cyclopropylpyridin-3-yl)-3-(3-methylbenzo[b]thiophen-5-yl)imidazolidin-2-one], the IC50 was 6.7 nM.

As for `O=C1N(c2cc(Cl)nc(C(F)(F)F)c2)CCN1c1cnccc1C1CC1` [Example 37A, 1-(2-chloro-6-(trifluoromethyl)pyridin-4-yl)-3-(4-cyclopropylpyridin-3-yl)imidazolidin-2-one], the IC50 was determined as 5 nM.

Regarding `O=C1N(c2ccnc(C(F)(F)F)n2)CCN1c1cnccc1C1CC1` [Example 12A, 1-(4-cyclopropylpyridin-3-yl)-3-(2-(trifluoromethyl)pyrimidin-4-yl)imidazolidin-2-one], the IC50 is 99 nM.

Turning to `O=C1N(c2cccc(C(F)(F)F)c2)CCN1c1cnccc1C1CC1` [Example 5A, 1-(4-cyclopropylpyridin-3-yl)-3-(3-(trifluoromethyl)phenyl)imidazolidin-2-one], the IC50 stood at 6 nM.

As for `O=C1N(c2ccc3scc(C(F)(F)F)c3c2)CCN1c1cnccc1C1CC1` [Example 13A, 1-(4-cyclopropylpyridin-3-yl)-3-(3-(trifluoromethyl)benzo[b]thiophen-5-yl)imidazolidin-2-one], the IC50 is 11 nM.

As for `Cc1cc(N2CCN(c3cnccc3C3CC3)C2=O)ncn1` [Example 41A, 1-(4-cyclopropylpyridin-3-yl)-3-(6-methylpyrimidin-4-yl)imidazolidin-2-one], the IC50 is 70 nM.

`O=C1N(c2cc(Cl)nc(C3CC3)c2)CCN1c1cnccc1C1CC1` [Example 47A, 1-(2-chloro-6-cyclopropylpyridin-4-yl)-3-(4-cyclopropylpyridin-3-yl)imidazolidin-2-one]: the IC50 is 5.2 nM.

As to `Cc1coc2ccc(N3CCN(c4cnccc4C4CC4)C3=O)cc12` [Example 19A, 1-(4-cyclopropylpyridin-3-yl)-3-(3-methylbenzofuran-5-yl)imidazolidin-2-one], the IC50 was determined as 2.7 nM.

For `COc1cc(N2CCN(c3cnccc3C3CC3)C2=O)ncn1` [Example 40A, 1-(4-cyclopropylpyridin-3-yl)-3-(6-methoxypyrimidin-4-yl)imidazolidin-2-one], the IC50 was 84 nM.
